Laboratory results as given in PubChem BioAssay AID1963827 (Molecular Pharmacology Branch, DTP, NCI, 2024).

System: 994946-033-R-J1-PDC complex spheroid viability
Assay: Anticancer human tumor 994946-033-R-J1-PDC patient-derived melanoma cell line growth inhibition [POLQ]
Conditions: for IC50: curve of first compound; for viability, T/C: stronger effect = lower value
Protocol: Multicellular complex tumor spheroid response to Polymerase (POL) inhibitors (novobiocin, ART-558, RP6685) in combination with a variety of drugs and investigational agents in selected tumor cell lines
The POL inhibitors (novobiocin, ART-558, and RP6685) were evaluated both individually and in combination with standard of care and investigational anticancer small molecules within a complex spheroid model of solid tumors. . Complex spheroids include a stromal component modeled by human endothelial cells (HUVEC) and fibroblasts modeled by human mesenchymal stem cells (MSCs). The concentration ranges selected for each drug and investigational agent were based upon clinically achievable concentrations if the clinical Cmax of the agent was known.
Compounds. The drugs and investigational agents: novobiocin (NSC847541), ART-558 (NSC835418), RP-6685 (NSC848927), peposertib (NSC802822), ceralasertib (NSC780249), elimusertib (NSC800525), camonsertib (NSC841442), AZD-1390 (NSC803789), olaparib (NSC753686), talazoparib (NSC767125), rucaparib (NSC756644), sotorasib (NSC818433), MRTX-1133 (NSC836407), SN-38 (NSC673596), topotecan (NSC609699), epotoside (NSC141540), doxorubicin (NSC123127), gemcitabine (NSC613327), 5-fluorouracil (NSC19893), paclitaxel (NSC125973), vemurafenib (NSC761431), MSA-2 (NSC828583), SN-011 (NSC837082), adavosertib (NSC754352), prexasertib (NSC758257), carboplatin (NSC241240) and oxaliplatin (NSC266046), were obtained from the National Cancer Institute (NCI) Developmental Therapeutics Program Chemical Repository (21). The FDA-approved anticancer drug set is available from the Developmental Therapeutics Program at https://dtp.cancer.gov/organization/dscb/obtaining/. […] The stock solutions were prepared in dimethyl sulfoxide (DMSO, Sigma-Aldrich, St. Louis, MO, cat. D2650), except for the platinum compounds which were prepared in saline (Quality Biological, Gaithersburg, MD, cat. 114-055-101), at 800-fold the tested concentration and stored at -70 degrees C prior to their use. All drugs and investigational agents were tested over a range starting from a high concentration at or near the clinical Cmax and decreasing in half-log increments. If the clinical Cmax for an agent had not been determined, the highest concentration tested was 10 microM, except for SN-38, which was tested at a high concentration of 1 microM.
Cell Culture. All cells were maintained in an incubator at 37 degrees C and 5% CO2 with 95% humidity. The PDC lines were cultured according to standard operating procedures established by the NCI PDMR (https://pdmr.cancer.gov). Table 3 of the manuscript, lists the cell lines along with the number of the three cell types plated to form the mct-spheroids and media for tumor cell growth. After thawing, all PDC lines, except 997537-175-T-J1-PDC and 415267-285-R-J2-PDC, were cultured in Matrigel-coated flasks prepared with a working solution of 1X Ham's F-12 nutrient mix, without supplementation (Thermo Fisher Scientific, cat. 11765054), 100 U/mL penicillin-streptomycin (Thermo Fisher Scientific, cat. 15140122), and 2.5% Matrigel (Corning Inc., Corning, NY, cat. 354248) for the first three passages. The two PDC lines 997537-175-T-J1-PDC and 415267-285-R-J2-PDC were cultured on uncoated flasks. The 857933-349-R-J2-PDC line was cultured in 6C/Colon 1B media containing advanced DMEM/F-12 (Thermo Fisher Scientific, cat. 12634028), 10 mM HEPES (Thermo Fisher Scientific, cat. 15630080), 1X GlutaMAX supplement (Thermo Fisher Scientific, cat. 35050061), 0.1 mg/mL primocin (InvivoGen, San Diego, CA, cat. ant-pm-2), 10% defined fetal bovine serum, heat inactivated (HyClone Laboratories Inc., Logan, UT, cat. SH30070.03HI), 50% L-WRN conditioned media (ATCC, cat. CRL-3276), 1.25 mM N-Acetyl-L-cysteine (Sigma-Aldrich, cat. A9165), 10 mM nicotinamide (Sigma-Aldrich, cat. N0636), 1X B-27 supplement (Thermo Fisher Scientific, cat. 17504044), 1X N-2 supplement (Thermo Fisher Scientific, cat. […]

[1] = second compound 0.0316 µM, first compound 0.0316 µM
[2] = second compound 0.0316 µM, first compound 0.1 µM
[3] = second compound 0.0316 µM, first compound 0.316 µM
[4] = second compound 0.0316 µM, first compound 1 µM
[5] = second compound 0.0316 µM, first compound 3.16 µM
[6] = second compound 0.0316 µM, first compound 10 µM
[7] = second compound 0.1 µM, first compound 0.0316 µM
[8] = second compound 0.1 µM, first compound 0.1 µM
[9] = second compound 0.1 µM, first compound 0.316 µM
[10] = second compound 0.1 µM, first compound 1 µM
[11] = second compound 0.1 µM, first compound 3.16 µM
[12] = second compound 0.1 µM, first compound 10 µM
[13] = second compound 0.316 µM, first compound 0.0316 µM
[14] = second compound 0.316 µM, first compound 0.1 µM
[15] = second compound 0.316 µM, first compound 0.316 µM
[16] = second compound 0.316 µM, first compound 1 µM
[17] = second compound 0.316 µM, first compound 3.16 µM
[18] = second compound 0.316 µM, first compound 10 µM
[19] = second compound 1 µM, first compound 0.0316 µM
[20] = second compound 1 µM, first compound 0.1 µM
[21] = second compound 1 µM, first compound 0.316 µM
[22] = second compound 1 µM, first compound 1 µM
[23] = second compound 1 µM, first compound 3.16 µM
[24] = second compound 1 µM, first compound 10 µM
[25] = second compound 3.16 µM, first compound 0.0316 µM
[26] = second compound 3.16 µM, first compound 0.1 µM
[27] = second compound 3.16 µM, first compound 0.316 µM
[28] = second compound 3.16 µM, first compound 1 µM
[29] = second compound 3.16 µM, first compound 3.16 µM
[30] = second compound 3.16 µM, first compound 10 µM
[31] = second compound 10 µM, first compound 0.0316 µM
[32] = second compound 10 µM, first compound 0.1 µM
[33] = second compound 10 µM, first compound 0.316 µM
[34] = second compound 10 µM, first compound 1 µM
[35] = second compound 10 µM, first compound 3.16 µM
[36] = second compound 10 µM, first compound 10 µM
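Also: spheroids exposed to drugs for 7 days.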
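For viability, T/C in this document: 100% = DMSO vehicle treated spheroids.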

COc1ccc([C@@H](O)c2cc(-c3ncnc4cc(N5CCOCC5)ccc34)c(F)cc2Cl)nn1 + Nc1ccc(C#CCN(C(=O)Cc2ncc(C(F)(F)F)cc2C(F)(F)F)c2ccc(F)cc2)nn1
IC50 (second compound 0.0316 µM): 4.98 µM
IC50 (second compound 0.1 µM): 6.83 µM
IC50 (second compound 0.316 µM): 3.13 µM
IC50 (second compound 1 µM): > 10 µM
IC50 (second compound 3.16 µM): 7.07 µM
IC50 (second compound 10 µM): 4.52 µM
viability, T/C [1]: 90.3%
viability, T/C [2]: 114%
viability, T/C [3]: 75.5%
viability, T/C [4]: 89%
viability, T/C [5]: 52.8%
viability, T/C [6]: 45.2%
viability, T/C [7]: 91.6%
viability, T/C [8]: 112%
viability, T/C [9]: 99.4%
viability, T/C [10]: 98.7%
viability, T/C [11]: 62%
viability, T/C [12]: 44.1%
viability, T/C [13]: 93.3%
viability, T/C [14]: 111%
viability, T/C [15]: 116%
viability, T/C [16]: 90.6%
viability, T/C [17]: 50.7%
viability, T/C [18]: 37.3%
viability, T/C [19]: 114%
viability, T/C [20]: 117%
viability, T/C [21]: 115%
viability, T/C [22]: 61.4%
viability, T/C [23]: 64.5%
viability, T/C [24]: 55.1%
viability, T/C [25]: 109%
viability, T/C [26]: 87%
viability, T/C [27]: 102%
viability, T/C [28]: 91.3%
viability, T/C [29]: 67.5%
viability, T/C [30]: 42.5%
viability, T/C [31]: 116%
viability, T/C [32]: 126%
viability, T/C [33]: 102%
viability, T/C [34]: 75.7%
viability, T/C [35]: 62.2%
viability, T/C [36]: 34%

O=C(Nc1ccc(O)c(NS(=O)(=O)c2ccc(F)cc2)c1)c1ccc(-c2ccccc2)cc1 + Cc1cccc(N(C)C(=O)C2C(O)CCN2c2nc(C)cc(C(F)(F)F)c2C#N)c1
IC50 (second compound 0.0316 µM): 9.36 µM
IC50 (second compound 0.1 µM): > 10 µM
IC50 (second compound 0.316 µM): 6.51 µM
IC50 (second compound 1 µM): 5.59 µM
IC50 (second compound 3.16 µM): 5.89 µM
IC50 (second compound 10 µM): 2.98 µM
viability, T/C [1]: 90.8%
viability, T/C [2]: 98%
viability, T/C [3]: 112%
viability, T/C [4]: 126%
viability, T/C [5]: 92.9%
viability, T/C [6]: 47.3%
viability, T/C [7]: 108%
viability, T/C [8]: 87.9%
viability, T/C [9]: 118%
viability, T/C [10]: 65%
viability, T/C [11]: 61.3%
viability, T/C [12]: 39.4%
viability, T/C [13]: 84.1%
viability, T/C [14]: 109%
viability, T/C [15]: 91.4%
viability, T/C [16]: 121%
viability, T/C [17]: 74.8%
viability, T/C [18]: 35.2%
viability, T/C [19]: 87.7%
viability, T/C [20]: 95.4%
viability, T/C [21]: 81.2%
viability, T/C [22]: 105%
viability, T/C [23]: 61.9%
viability, T/C [24]: 37.9%
viability, T/C [25]: 73.5%
viability, T/C [26]: 59.4%
viability, T/C [27]: 90.2%
viability, T/C [28]: 73%
viability, T/C [29]: 81.3%
viability, T/C [30]: 28.3%
viability, T/C [31]: 85.5%
viability, T/C [32]: 81.3%
viability, T/C [33]: 95.8%
viability, T/C [34]: 81.3%
viability, T/C [35]: 48.4%
viability, T/C [36]: 26.8%
